Experimental data as given in ChEMBL document CHEMBL4387723, “Ultrasonication-ionic liquid synergy for the synthesis of new potent anti-tuberculosis 1,2,4-triazol-1-yl-pyrazole based spirooxindolopyrrolizidines” (Bioorg Med Chem Lett, 2019).
In brackets after ≈: the same amount, converted by molar mass.

Legend:
[1] = test system: Mycobacterium tuberculosis; test: Antitubercular activity against Mycobacterium tuberculosis H37Rv incubated for 7 days by microplate alamar blue assay; format: functional; conditions: 168 h
[2] = test system: Mycobacterium tuberculosis; test: Potency index, ratio of ethambutol MIC to test compound MIC for antitubercular activity against Mycobacterium tuberculosis H37Rv incubated for […] by microplate alamar blue assay; format: functional
[3] = Cytotoxicity against mouse RAW264.7 cells assessed as reduction in cell viability at 25 ug/ml incubated for 48 hrs by MTT assay relative to control; format: cell-based; conditions: read-out: INH

SMILES	MIC [1] [µg/mL]	Ratio [2]	cytotoxicity at 48 h, 25 ug/ml [3] [%]
Cc1nn(-c2ccccc2)c(-n2cncn2)c1C1C2CCCN2C2(C(=O)Nc3ccc(Cl)cc32)C1C(=O)c1ccccc1 (stereo unspecified)	0.78 (≈ 1.32 µM)	>1	19.8
COc1ccc(C(=O)C2C(c3c(C)nn(-c4ccccc4)c3-n3cncn3)C3CCCN3C23C(=O)Nc2ccccc23)cc1 (stereo unspecified)	12.5 (≈ 21.3 µM)	–	–
Cc1nn(-c2ccccc2)c(-n2cncn2)c1C1C2CCCN2C2(C(=O)Nc3ccccc32)C1C(=O)c1ccccc1 (stereo unspecified)	> 25	–	–
Cc1nn(-c2ccccc2)c(-n2cncn2)c1C1C2CCCN2C2(C(=O)Nc3ccccc32)C1C(=O)c1ccc(Br)cc1 (stereo unspecified)	1.56 (≈ 2.46 µM)	–	27.1
Cc1nn(-c2ccccc2)c(-n2cncn2)c1C1C2CCCN2C2(C(=O)Nc3ccc(Br)cc32)C1C(=O)c1ccc(Cl)cc1 (stereo unspecified)	1.56 (≈ 2.33 µM)	–	22.4
Cc1nn(-c2ccccc2)c(-n2cncn2)c1C1C2CCCN2C2(C(=O)Nc3ccc(Cl)cc32)C1C(=O)c1ccc([N+](=O)[O-])cc1 (stereo unspecified)	1.56 (≈ 2.46 µM)	–	24.9
Cc1nn(-c2ccccc2)c(-n2cncn2)c1C1C2CCCN2C2(C(=O)Nc3ccc(Cl)cc32)C1C(=O)c1cccc([N+](=O)[O-])c1 (stereo unspecified)	6.25 (≈ 9.84 µM)	–	19
Cc1nn(-c2ccccc2)c(-n2cncn2)c1C1C2CCCN2C2(C(=O)Nc3ccc(Br)cc32)C1C(=O)c1ccc([N+](=O)[O-])cc1 (stereo unspecified)	6.25 (≈ 9.2 µM)	–	26.4
Cc1nn(-c2ccccc2)c(-n2cncn2)c1C1C2CCCN2C2(C(=O)Nc3ccccc32)C1C(=O)c1ccc(Cl)cc1 (stereo unspecified)	6.25 (≈ 10.6 µM)	–	16.9
Cc1nn(-c2ccccc2)c(-n2cncn2)c1C1C2CCCN2C2(C(=O)Nc3ccccc32)C1C(=O)c1cccc([N+](=O)[O-])c1 (stereo unspecified)	> 25	–	–
Cc1nn(-c2ccccc2)c(-n2cncn2)c1C1C2CCCN2C2(C(=O)Nc3ccc(Br)cc32)C1C(=O)c1cccc([N+](=O)[O-])c1 (stereo unspecified)	6.25 (≈ 9.2 µM)	–	20.1
COc1ccc(C(=O)C2C(c3c(C)nn(-c4ccccc4)c3-n3cncn3)C3CCCN3C23C(=O)Nc2ccc(Br)cc23)cc1 (stereo unspecified)	25 (≈ 37.6 µM)	–	–
Cc1nn(-c2ccccc2)c(-n2cncn2)c1C1C2CCCN2C2(C(=O)Nc3ccc(Cl)cc32)C1C(=O)c1ccc(Cl)cc1 (stereo unspecified)	1.56 (≈ 2.5 µM)	–	17.9
Cc1nn(-c2ccccc2)c(-n2cncn2)c1C1C2CCCN2C2(C(=O)Nc3ccc(Br)cc32)C1C(=O)c1ccccc1 (stereo unspecified)	3.12 (≈ 4.92 µM)	–	18.6
Cc1nn(-c2ccccc2)c(-n2cncn2)c1C1C2CCCN2C2(C(=O)Nc3ccc(Br)cc32)C1C(=O)c1ccc(Br)cc1 (stereo unspecified)	1.56 (≈ 2.19 µM)	–	22
Cc1ccc(C(=O)C2C(c3c(C)nn(-c4ccccc4)c3-n3cncn3)C3CCCN3C23C(=O)Nc2ccccc23)cc1 (stereo unspecified)	> 25	–	–
Cc1nn(-c2ccccc2)c(-n2cncn2)c1C1C2CCCN2C2(C(=O)Nc3ccccc32)C1C(=O)c1ccc([N+](=O)[O-])cc1 (stereo unspecified)	6.25 (≈ 10.4 µM)	–	29.6
COc1ccc(C(=O)C2C(c3c(C)nn(-c4ccccc4)c3-n3cncn3)C3CCCN3C23C(=O)Nc2ccc(Cl)cc23)cc1 (stereo unspecified)	3.12 (≈ 5.03 µM)	–	21.6
Cc1ccc(C(=O)C2C(c3c(C)nn(-c4ccccc4)c3-n3cncn3)C3CCCN3C23C(=O)Nc2ccc(Cl)cc23)cc1 (stereo unspecified)	25 (≈ 41.4 µM)	–	–
Cc1nn(-c2ccccc2)c(-n2cncn2)c1C1C2CCCN2C2(C(=O)Nc3ccc(Cl)cc32)C1C(=O)c1ccc(Br)cc1 (stereo unspecified)	1.56 (≈ 2.33 µM)	–	26.4
CC[C@@H](CO)NCCN[C@@H](CC)CO [ETHAMBUTOL]	1.56 (≈ 7.64 µM)	–	–
